According to EP4467141A1, “PYRAZOLO-QUINOLINES AS SELECTIVE INHIBITORS OF GENOTOXIC STRESS-INDUCED IKK/NF- KB PATHWAYS FOR CANCER THERAPY” (Max-Delbrück-Centrum für Molekulare Medizin in der …, priority 2023, dated 2024):

Columns and labels:
Test in all cases: Kinase panel study
Format in all cases: biochemical
Conditions in all cases: read-out: Percentage of inhibition; for inhibition at 1 µM: 1000nM; for inhibition at 10 µM: 10000nM
PRKD2 (PKD2) = target: T1, PRKD2 (PKD2) (Homo sapiens, UniProt Q9BZL6)
T1 construct: purchased Thermo Fisher Scientific
T1 sequence (Q9BZL6 1-878): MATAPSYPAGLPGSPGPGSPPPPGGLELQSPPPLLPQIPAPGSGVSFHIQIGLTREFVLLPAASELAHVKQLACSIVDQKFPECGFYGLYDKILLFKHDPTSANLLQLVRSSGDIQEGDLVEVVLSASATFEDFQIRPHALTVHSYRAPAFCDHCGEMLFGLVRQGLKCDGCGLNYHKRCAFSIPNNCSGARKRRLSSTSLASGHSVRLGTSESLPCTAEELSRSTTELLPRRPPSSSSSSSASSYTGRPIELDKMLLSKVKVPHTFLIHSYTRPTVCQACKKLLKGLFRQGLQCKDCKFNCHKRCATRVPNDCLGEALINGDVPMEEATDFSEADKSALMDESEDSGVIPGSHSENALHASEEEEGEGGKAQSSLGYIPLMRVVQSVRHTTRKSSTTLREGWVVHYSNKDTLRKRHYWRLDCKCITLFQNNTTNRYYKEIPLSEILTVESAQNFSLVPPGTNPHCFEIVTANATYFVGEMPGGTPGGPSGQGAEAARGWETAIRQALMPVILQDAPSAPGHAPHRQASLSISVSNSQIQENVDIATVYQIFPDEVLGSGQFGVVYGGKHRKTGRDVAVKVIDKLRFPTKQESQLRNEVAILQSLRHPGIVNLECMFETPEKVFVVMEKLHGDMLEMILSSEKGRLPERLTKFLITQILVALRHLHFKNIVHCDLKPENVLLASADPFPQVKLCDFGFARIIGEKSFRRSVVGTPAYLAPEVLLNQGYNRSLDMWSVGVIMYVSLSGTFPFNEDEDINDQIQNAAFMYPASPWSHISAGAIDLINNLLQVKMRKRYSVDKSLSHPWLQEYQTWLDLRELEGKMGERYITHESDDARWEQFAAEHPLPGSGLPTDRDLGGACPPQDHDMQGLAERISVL
Method in brief: (§1)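 Inhibition was measured in an outsourced in vitro kinase panel using the ZLyte or Adapta format under the provider's standard procedures. Values are percent inhibition at 10 µM or 1 µM compound, and IC50s were also obtained.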

CSNK1A1L = target: T2, CSNK1A1L (Homo sapiens, UniProt Q8N752)
T2 construct: purchased Thermo Fisher Scientific
T2 sequence (Q8N752 1-337): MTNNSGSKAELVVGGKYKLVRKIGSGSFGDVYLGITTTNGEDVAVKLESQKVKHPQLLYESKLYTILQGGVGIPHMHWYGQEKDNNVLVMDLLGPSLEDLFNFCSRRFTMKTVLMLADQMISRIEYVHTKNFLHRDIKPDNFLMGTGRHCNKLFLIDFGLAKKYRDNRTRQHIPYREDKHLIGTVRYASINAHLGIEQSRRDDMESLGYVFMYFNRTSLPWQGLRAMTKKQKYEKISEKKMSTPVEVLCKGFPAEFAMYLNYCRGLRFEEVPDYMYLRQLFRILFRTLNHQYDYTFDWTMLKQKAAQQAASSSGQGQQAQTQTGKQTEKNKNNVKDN
Method in brief: as §1

[1] = target: T3, PIK3CA E545K/PIK3R1 (p11 0 alpha E545K/p85 alpha) (Homo sapiens, UniProt P42336, E545K)
T3 construct: purchased Thermo Fisher Scientific
T3 sequence (P42336 whole entry E545K): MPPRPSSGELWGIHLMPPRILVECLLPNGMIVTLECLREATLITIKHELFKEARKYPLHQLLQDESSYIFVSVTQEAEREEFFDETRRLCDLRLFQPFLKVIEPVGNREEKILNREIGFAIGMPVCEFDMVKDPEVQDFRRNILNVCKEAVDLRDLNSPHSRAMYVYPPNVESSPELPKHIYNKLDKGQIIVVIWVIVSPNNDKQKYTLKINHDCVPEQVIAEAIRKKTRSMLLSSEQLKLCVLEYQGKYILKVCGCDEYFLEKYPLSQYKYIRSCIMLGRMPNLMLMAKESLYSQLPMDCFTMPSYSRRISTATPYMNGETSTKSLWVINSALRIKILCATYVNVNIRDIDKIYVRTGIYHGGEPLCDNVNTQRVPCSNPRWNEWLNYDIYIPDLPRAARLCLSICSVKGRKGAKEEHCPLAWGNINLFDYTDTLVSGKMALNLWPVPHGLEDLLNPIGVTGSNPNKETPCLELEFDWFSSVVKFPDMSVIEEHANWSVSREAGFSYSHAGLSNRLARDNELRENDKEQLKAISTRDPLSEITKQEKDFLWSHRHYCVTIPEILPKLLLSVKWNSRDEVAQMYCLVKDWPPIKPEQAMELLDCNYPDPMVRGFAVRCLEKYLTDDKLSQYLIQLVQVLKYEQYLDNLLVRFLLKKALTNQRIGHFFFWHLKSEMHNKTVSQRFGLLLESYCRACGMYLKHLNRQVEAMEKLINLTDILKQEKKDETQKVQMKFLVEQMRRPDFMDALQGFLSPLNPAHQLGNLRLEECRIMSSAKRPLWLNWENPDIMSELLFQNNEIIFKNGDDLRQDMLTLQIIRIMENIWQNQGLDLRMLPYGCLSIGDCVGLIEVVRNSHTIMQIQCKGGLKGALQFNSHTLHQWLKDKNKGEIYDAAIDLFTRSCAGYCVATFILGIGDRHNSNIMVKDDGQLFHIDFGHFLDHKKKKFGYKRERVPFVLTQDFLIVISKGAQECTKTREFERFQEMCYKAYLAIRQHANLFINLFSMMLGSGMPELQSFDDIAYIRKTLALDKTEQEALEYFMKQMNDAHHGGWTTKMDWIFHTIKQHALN
T3 sequence (P27986 whole entry partner): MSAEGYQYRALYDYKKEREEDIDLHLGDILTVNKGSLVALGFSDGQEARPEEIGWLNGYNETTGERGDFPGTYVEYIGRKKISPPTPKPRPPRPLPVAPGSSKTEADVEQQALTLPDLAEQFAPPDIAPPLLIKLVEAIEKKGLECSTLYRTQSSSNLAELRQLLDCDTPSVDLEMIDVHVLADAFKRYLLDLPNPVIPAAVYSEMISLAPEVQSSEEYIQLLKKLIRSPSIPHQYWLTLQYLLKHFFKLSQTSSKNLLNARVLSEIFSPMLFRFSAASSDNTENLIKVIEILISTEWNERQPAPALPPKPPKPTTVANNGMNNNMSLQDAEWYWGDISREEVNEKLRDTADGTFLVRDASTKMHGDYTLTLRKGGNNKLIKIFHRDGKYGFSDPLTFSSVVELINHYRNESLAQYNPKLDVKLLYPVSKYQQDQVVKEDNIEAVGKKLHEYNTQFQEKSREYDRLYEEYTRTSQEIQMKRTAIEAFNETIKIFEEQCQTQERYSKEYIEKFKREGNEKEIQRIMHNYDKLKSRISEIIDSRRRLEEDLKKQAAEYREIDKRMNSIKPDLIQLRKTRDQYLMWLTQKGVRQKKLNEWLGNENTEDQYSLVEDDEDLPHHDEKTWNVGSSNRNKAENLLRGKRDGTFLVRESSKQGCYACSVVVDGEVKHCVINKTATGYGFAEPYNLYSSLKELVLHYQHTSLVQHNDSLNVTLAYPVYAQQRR
Method in brief: as §1

PHKG2 = target: T4, PHKG2 (Homo sapiens, UniProt P15735)
T4 construct: purchased Thermo Fisher Scientific
T4 sequence (P15735 1-406): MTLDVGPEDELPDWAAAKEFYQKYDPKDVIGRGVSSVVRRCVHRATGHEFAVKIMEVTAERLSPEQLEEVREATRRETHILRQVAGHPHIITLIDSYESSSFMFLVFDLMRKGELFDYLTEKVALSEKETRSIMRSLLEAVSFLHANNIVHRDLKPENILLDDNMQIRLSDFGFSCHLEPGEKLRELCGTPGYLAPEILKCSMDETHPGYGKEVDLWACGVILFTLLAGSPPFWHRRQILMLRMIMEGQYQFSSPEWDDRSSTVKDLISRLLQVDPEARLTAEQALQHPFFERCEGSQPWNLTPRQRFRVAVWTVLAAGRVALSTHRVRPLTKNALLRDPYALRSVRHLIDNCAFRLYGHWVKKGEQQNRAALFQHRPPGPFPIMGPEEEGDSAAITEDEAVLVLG
Method in brief: as §1

RPS6KA4 (MSK2) = target: T5, RPS6KA4 (MSK2) (Homo sapiens, UniProt O75676)
T5 construct: purchased Thermo Fisher Scientific
T5 sequence (O75676 whole entry): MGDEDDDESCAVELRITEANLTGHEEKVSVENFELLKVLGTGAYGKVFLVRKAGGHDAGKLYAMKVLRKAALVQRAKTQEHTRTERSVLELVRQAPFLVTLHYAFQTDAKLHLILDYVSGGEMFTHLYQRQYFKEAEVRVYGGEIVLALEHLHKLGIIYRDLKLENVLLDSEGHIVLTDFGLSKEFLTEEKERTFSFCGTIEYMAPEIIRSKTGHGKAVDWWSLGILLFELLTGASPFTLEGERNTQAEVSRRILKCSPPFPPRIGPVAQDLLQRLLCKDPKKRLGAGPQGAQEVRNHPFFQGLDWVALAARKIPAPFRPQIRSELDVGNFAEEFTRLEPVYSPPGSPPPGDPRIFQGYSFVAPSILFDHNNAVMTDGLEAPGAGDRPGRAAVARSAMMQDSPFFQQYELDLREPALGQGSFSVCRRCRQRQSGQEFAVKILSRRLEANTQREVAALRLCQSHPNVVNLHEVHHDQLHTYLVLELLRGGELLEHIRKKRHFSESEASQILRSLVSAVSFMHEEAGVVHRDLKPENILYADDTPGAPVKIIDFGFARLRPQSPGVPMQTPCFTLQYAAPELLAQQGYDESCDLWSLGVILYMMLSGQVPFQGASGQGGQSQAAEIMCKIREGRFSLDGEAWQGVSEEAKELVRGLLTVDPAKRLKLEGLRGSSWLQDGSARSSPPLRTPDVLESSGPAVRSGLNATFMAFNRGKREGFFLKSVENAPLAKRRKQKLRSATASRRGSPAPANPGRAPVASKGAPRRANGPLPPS
Method in brief: as §1

[2] = target: T6, EGFR (ErbB1) T790M C797S L858R (Homo sapiens, UniProt P00533, C797S/L858R/T790M)
T6 construct: purchased Thermo Fisher Scientific
T6 sequence (P00533 25-1210 T790M/C797S/L858R): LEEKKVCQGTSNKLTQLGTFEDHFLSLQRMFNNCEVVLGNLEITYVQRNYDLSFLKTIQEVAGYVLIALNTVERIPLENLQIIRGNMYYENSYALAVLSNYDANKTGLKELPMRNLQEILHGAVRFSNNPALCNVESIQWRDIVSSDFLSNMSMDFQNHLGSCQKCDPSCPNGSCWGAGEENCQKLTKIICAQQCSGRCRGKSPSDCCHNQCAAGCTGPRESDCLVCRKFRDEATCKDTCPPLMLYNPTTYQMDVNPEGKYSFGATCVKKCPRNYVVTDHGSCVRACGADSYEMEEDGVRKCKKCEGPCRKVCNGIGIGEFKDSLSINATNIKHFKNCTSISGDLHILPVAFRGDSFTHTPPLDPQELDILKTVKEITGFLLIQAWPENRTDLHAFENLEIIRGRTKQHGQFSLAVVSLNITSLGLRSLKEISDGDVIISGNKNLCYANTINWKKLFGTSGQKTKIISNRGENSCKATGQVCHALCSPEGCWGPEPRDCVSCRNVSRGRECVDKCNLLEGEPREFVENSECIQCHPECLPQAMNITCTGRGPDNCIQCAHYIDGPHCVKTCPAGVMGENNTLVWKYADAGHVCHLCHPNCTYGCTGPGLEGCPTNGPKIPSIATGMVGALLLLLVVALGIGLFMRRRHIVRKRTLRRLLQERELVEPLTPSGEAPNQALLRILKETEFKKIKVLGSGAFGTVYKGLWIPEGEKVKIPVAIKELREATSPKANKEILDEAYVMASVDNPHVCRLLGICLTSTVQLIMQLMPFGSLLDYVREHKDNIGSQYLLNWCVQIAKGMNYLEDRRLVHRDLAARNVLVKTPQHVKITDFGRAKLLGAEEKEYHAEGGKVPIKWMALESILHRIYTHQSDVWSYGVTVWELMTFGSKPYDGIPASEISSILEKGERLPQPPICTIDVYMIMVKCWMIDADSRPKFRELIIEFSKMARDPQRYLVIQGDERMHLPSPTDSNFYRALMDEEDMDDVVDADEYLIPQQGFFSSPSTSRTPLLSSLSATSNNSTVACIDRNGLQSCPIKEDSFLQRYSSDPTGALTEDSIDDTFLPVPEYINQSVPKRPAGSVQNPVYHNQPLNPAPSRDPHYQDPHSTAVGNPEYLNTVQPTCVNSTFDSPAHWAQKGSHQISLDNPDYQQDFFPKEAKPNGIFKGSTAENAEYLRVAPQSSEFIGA
Method in brief: as §1

MAPKAPK2 = target: T7, MAPKAPK2 (Homo sapiens, UniProt P49137)
T7 construct: purchased Thermo Fisher Scientific
T7 sequence (P49137 whole entry): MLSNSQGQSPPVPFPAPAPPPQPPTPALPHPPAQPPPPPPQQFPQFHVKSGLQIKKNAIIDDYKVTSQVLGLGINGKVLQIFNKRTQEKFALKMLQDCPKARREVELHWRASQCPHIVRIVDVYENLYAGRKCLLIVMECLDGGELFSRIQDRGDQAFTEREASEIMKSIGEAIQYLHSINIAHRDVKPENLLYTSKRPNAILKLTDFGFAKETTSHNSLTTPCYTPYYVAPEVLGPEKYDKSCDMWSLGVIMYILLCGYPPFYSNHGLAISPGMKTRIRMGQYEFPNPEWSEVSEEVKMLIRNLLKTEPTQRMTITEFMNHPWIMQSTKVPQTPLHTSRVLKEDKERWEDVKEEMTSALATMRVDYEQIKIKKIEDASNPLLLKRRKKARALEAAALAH
Method in brief: as §1

GSK3A (GSK3 alpha) = target: T8, GSK3A (GSK3 alpha) (Homo sapiens, UniProt P49840)
T8 construct: purchased Thermo Fisher Scientific
T8 sequence (P49840 whole entry): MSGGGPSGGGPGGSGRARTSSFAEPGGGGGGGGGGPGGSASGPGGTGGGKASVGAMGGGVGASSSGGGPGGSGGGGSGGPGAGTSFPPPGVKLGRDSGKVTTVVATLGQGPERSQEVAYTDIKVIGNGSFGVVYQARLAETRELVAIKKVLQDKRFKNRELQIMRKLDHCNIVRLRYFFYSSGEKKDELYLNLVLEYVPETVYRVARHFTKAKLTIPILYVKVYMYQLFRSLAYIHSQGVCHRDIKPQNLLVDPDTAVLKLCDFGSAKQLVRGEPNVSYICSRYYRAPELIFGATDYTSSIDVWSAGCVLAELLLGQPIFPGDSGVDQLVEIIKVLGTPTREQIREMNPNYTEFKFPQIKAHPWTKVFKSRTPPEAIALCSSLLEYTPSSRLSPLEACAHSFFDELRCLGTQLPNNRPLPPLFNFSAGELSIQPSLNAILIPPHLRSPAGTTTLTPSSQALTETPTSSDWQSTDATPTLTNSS
Method in brief: as §1

With `COc1ccc2c(c1OC)c(=O)n1c3ccc(O)cc3c3ccnc2c31` [MW01, 5-Hydroxy-10,11-dimethoxy-9H-benzo[c]indolo[3,2,1-ij][1,5]naphthyridin-9-one] as the molecule, how does the inhibition at 1 µM (PRKD2 (PKD2)) read?
Its inhibition at 1 µM is 38%.

What about the inhibition at 10 µM (PRKD2 (PKD2)) of the same molecule?
The inhibition at 10 µM was 71%.

And the inhibition at 1 µM (CSNK1A1L)?
Its inhibition at 1 µM is 1%.

What about the inhibition at 10 µM (CSNK1A1L) of the same molecule?
The inhibition at 10 µM was 11%.

And the inhibition at 1 µM [1]?
Its inhibition at 1 µM is 91%.

And the inhibition at 10 µM [1]?
The inhibition at 10 µM was 97%.

What about the inhibition at 1 µM (PHKG2) of the same molecule?
Its inhibition at 1 µM is 6%.

And the inhibition at 10 µM (PHKG2)?
The inhibition at 10 µM was 8%.

And the inhibition at 1 µM (RPS6KA4 (MSK2))?
The inhibition at 1 µM was 12%.

What about the inhibition at 10 µM (RPS6KA4 (MSK2)) of the same molecule?
Its inhibition at 10 µM is 24%.

What about the inhibition at 1 µM [2] of the same molecule?
Its inhibition at 1 µM is 2%.

And the inhibition at 10 µM [2]?
Its inhibition at 10 µM is 12%.

What about the inhibition at 1 µM (MAPKAPK2) of the same molecule?
Its inhibition at 1 µM is 3%.

What about the inhibition at 10 µM (MAPKAPK2) of the same molecule?
The inhibition at 10 µM was 3%.

What about the inhibition at 1 µM (GSK3A (GSK3 alpha)) of the same molecule?
The inhibition at 1 µM was 25%.

And the inhibition at 10 µM (GSK3A (GSK3 alpha))?
Its inhibition at 10 µM is 55%.

What does the source list for `COc1ccc2cc3c(N)nn(C(=O)c4cccc(N(C)C)c4)c3nc2c1` [MW05, (3-Amino-7-methoxypyrazolo[3,4-b]quinolin-1-yl)-[3-(dimethylamino)phenyl]methanone]?
inhibition at 1 µM (PRKD2 (PKD2)): 11%; inhibition at 10 µM (PRKD2 (PKD2)): 10%; inhibition at 1 µM (CSNK1A1L): 1%; inhibition at 10 µM (CSNK1A1L): 1%; inhibition at 1 µM [1]: 15%; inhibition at 10 µM [1]: 61%; inhibition at 1 µM (PHKG2): 6%; inhibition at 10 µM (PHKG2): -3%; inhibition at 1 µM (RPS6KA4 (MSK2)): -3%; inhibition at 10 µM (RPS6KA4 (MSK2)): 4%; inhibition at 1 µM [2]: 1%; inhibition at 10 µM [2]: 2%; inhibition at 1 µM (MAPKAPK2): 4%; inhibition at 10 µM (MAPKAPK2): -6%; inhibition at 1 µM (GSK3A (GSK3 alpha)): 3%; inhibition at 10 µM (GSK3A (GSK3 alpha)): 18%
